Test results reported in US12156915B2, “Selected artemisinin dimers for the treatment of lashmaniasis” (priority 2020, dated 2024).
Values joined by “and” are separate entries in the source; they are usually repeats but may differ in a detail not shown here. Equal entries are not always repeated. “Also recorded” adds a separate entry of the source.

Assays:
[1] = test system: intracellular amastigote form of L. donovani parasite in differentiated THP1 cells; assay: Parasite rescue and transformation assay (macrophage internalized amastigotes); format: cell-based, Leishmania donovani; conditions: for selectivity index (SI): IC50 of cytotoxicity divided by IC50 in parasite rescue and transformation assay; for IC50: Leishmania donovani, THP-1, parasite rescue and transformation assay, read-out: IC50 anti-leishmanial activity, intracellular amastigote
Protocol: This assay is based on the previously published protocol by Jain et al. (35). A 3-day old culture of THP1 cells in the exponential phase was diluted with RPMI medium to 2.5×10^5 cells/ml. PMA was added to final a concentration of 25 ng/ml. PMA treated culture was dispensed in clear flat bottom culture plates and incubated overnight at 37° C. in a 5% CO2 incubator. The plates with differentiated THP1 Cells were washed with serum-free medium with the help of Molecular device AquaMax 4000. A 5-6-day old L. donovani promastigote culture diluted to 5×10^6 cells/ml was added over differentiated THP1 cells. The Macrophage cells to parasite ratio for infection was 1:10. The plates were incubated for 24 hrs. After 24 hrs., the plates were again washed with the help of AquaMax 4000 and the serum-free medium was replaced by a medium with diluted test samples. The plates were placed again in a CO2 incubator at […] for 48 hrs. After 48 hrs., the macrophage amastigote plates were washed and treated with 0.05% SDS for 30 secs., and diluted SDS medium was immediately replaced with complete RPMI medium. Plates were incubated for amastigote to promastigote transformation, and promastigote growth at […] for 48 hrs. After 48 hrs., 5 μl of alamar blue was added to each well of macrophage amastigote assay plates, and the plates were incubated further for 24 hrs. Standard fluorescence was measured on a Fluostar Galaxy fluorometer (BMG LabTechnologies) at 544 nm ex, 590 nm em. Xlfit 5.3.1 software has generated all dose response curves.

[2] = test system: L. donovani promastigotes; assay: Annexin V binding apoptosis assay (Annexin V/Propidium Iodide flow cytometry); format: cell-based, Leishmania donovani; conditions: for apoptotic effect on promastigotes: dimers 14 μM, artemisinin 35 μM, 24 to 72 hrs
Source text: Apoptosis, also known as programmed cell death, is a physiological process of removal of unwanted cells (37). In one of the earlier events, the process of apoptosis includes translocation of membrane phosphatidylserine from the inner side of the cell membrane to the surface (38). Annexin V is a Ca^++ dependent phospholipid-binding protein which has a high affinity for phosphatidylserine (39). So FITC-labeled Annexin V can be used for the analysis of exposed PS using a flow cytometer (40). Apoptosis analysis was done by flow cytometry using Annexin V/Propidium Iodide staining method. […] 1×10^7 promastigote cells/ml were treated with artemisinin (35 μM), dimer Morpholine (14 μM) and dimer GABA (14 μM). Aliquots were withdrawn at different time intervals and stained with FITC-Annexin V and Propidium Iodide. The cell was analyzed by flow-cytometry. […] 50,000 in a gated event were run in a FL2 (Propidium Iodide)/FL1 (Annexin FITC) and analyzed by quadrangle plot.

[3] = test system: promastigote form of L. donovani parasite; assay: Leishmania donovani promastigote assay (alamar blue); format: cell-based; conditions: read-out: IC50 anti-leishmanial activity, promastigote
Protocol: THP-1 cells (human monocytic leukemia cells) were made available by the American Type Culture Collection (ATCC) and were maintained in RPMI 1640 media (Life-Technologies) supplemented with Sodium Pyruvate, Glutamine, HEPES (Life-81 Technologies) and 10% heat-inactivated FBS (Sigma). The culture was maintained at 37° C. in 5% CO2 incubator. THP1 cells Subculture was done every 3-4 days. Promastigote forms of Leishmania donovani (S1 strain) was grown in RPMI 1640 medium at pH 7.4 supplemented with 10% fetal bovine serum. The culture was maintained at 26° C. by incubator. Subculture was done every 3-4 days. The promastigote assay was based on alamar blue base growth analysis (33). A 3-4 day old promastigote culture in the exponential phase was diluted with RPMI 1640 medium, to 1×10^6 cells/ml. Artemisinin dimer samples were diluted to stock concentration of 2 mg/ml. Artemisinin dimer samples were dispensed in culture plates and diluted with a promastigote culture so the final highest concentration of samples was 10 μg/ml, and highest concentration of parent artemisinin was 40 μg/ml. The culture with the highest concentration of each artemisinin dimer was serially diluted in 1:5 ratio to 6 different concentrations. All artemisinin dimers were tested in triplicate. […] Standard fluorescence was measured on a Fluostar Galaxy fluorometer (BMG LabTechnologies) at 544 nm ex, 590 nm em. […]

[4] = THP1 cytotoxicity assay (alamar blue); format: cell-based; conditions: human, PMA-differentiated THP1 cells, 48 hrs + 24 hrs alamar blue
Protocol: THP-1 cells (human monocytic leukemia cells) were made available by the American Type Culture Collection (ATCC) and were maintained in RPMI 1640 media (Life-Technologies) supplemented with Sodium Pyruvate, Glutamine, HEPES (Life-81 Technologies) and 10% heat-inactivated FBS (Sigma). The culture was maintained at 37° C. in 5% CO2 incubator. THP1 cells Subculture was done every 3-4 days. Promastigote forms of Leishmania donovani (S1 strain) was grown in RPMI 1640 medium at pH 7.4 supplemented with 10% fetal bovine serum. The culture was maintained at 26° C. by incubator. Subculture was done every 3-4 days.
A 3-day old culture of THP1 cells in the exponential phase was diluted with RPMI medium to 2.5×10^5 cells/ml. PMA was added to final a concentration of 25 ng/ml. PMA treated culture was dispensed in clear flat bottom culture plates and incubated overnight at 37° C. in a 5% CO2 incubator. The plates with differentiated THP1 cells were washed with serum-free medium with the help of Molecular device AquaMax 4000 and the serum-free medium was replaced by a medium with diluted test samples. The plates were placed again in a CO2 incubator at […] for 48 hrs. […] Standard fluorescence was measured on a Fluostar Galaxy fluorometer (BMG LabTechnologies) at 544 nm ex, 590 nm em. […]

| SMILES | IC50 [1] [µM] | selectivity index (SI) [1] | apoptotic effect on promastigotes [2] | IC50 at 48 h [4] [µM] | also measured |
| --- | --- | --- | --- | --- | --- |
| C[C@H]1[C@@H](OCC(CO[C@H]2O[C@@H]3O[C@@]4(C)CC[C@H]5[C@H](C)CC[C@@H]([C@H]2C)[C@@]35OO4)N2CCOCC2)OC2O[C@@]3(C)CC[C@H]4[C@H](C)CC[C@@H]1[C@@]24OO3 (stereo partly drawn) [Dimer Morpholine] | 0.007 | > 2056 and > 2052 | time-dependent apoptotic effect | – | population in UR area of FL2/FL1 dot plot, 48 hrs compared to 24 hrs ([2]; 14 μM): significantly (P<0.0001) higher population; population in UR area of FL2/FL1 dot plot, 72 hrs compared to 24 hrs ([2]; 14 μM): significantly (P<0.0001) higher population; population in Upper Right (UR, late apoptosis) area of FL2 (PI)/FL1 (Annexin FITC) dot plot compared to control group ([2]; 14 μM, 24 hrs): significantly (P<0.0001) higher population; population in UR area of FL2/FL1 dot plot compared to control group ([2]; 14 μM, 48 hrs): significantly (P<0.0001) higher population; population in UR area of FL2/FL1 dot plot compared to control group ([2]; 14 μM, 72 hrs): significantly (P<0.0001) higher population |
| C[C@@H]1[C@H](O)[C@@H](C)/C=C/C=C/C=C/C=C/C=C/C=C/C=C/[C@H](O[C@@H]2O[C@H](C)[C@@H](O)[C@H](N)[C@@H]2O)C[C@@H]2O[C@](O)(C[C@@H](O)C[C@@H](O)[C@H](O)CC[C@@H](O)C[C@@H](O)CC(=O)O[C@H]1C)C[C@H](O)[C@H]2C(=O)O [amphotericin, amphotericin B] | 0.062 | 201 | – | – | – |
| C[C@H]1[C@@H](OC/C(CO[C@H]2O[C@@H]3O[C@]4(C)CC[C@H]5[C@H](C)CC[C@@H]([C@H]2C)[C@@]35OO4)=N\O)O[C@@H]2OC3(C)CC[C@H]4[C@H](C)CC[C@@H]1[C@@]24OO3 [dimer oxime] | – | – | – | 11.4 | – |
| C[C@H]1[C@@H](OCC(CO[C@H]2O[C@@H]3O[C@@]4(C)CC[C@H]5[C@H](C)CC[C@@H]([C@H]2C)[C@@]35OO4)NCCc2c[nH]c3ccccc23)OC2O[C@@]3(C)CC[C@H]4[C@H](C)CC[C@@H]1[C@@]24OO3 (stereo partly drawn) [dimer tryptamine] | – | – | – | 7.39 | – |

Further lines, with some results ahead:

| IC50 [1] [µM] | SMILES | selectivity index (SI) [1] | apoptotic effect on promastigotes [2] | IC50 at 48 h [4] [µM] | also measured |
| --- | --- | --- | --- | --- | --- |
| > 35.4 | C[C@@H]1CC[C@H]2[C@@H](C)C(=O)O[C@@H]3O[C@@]4(C)CC[C@@H]1[C@]32OO4 [artemisinin] | – | does not have; also recorded: does not have leishmanicidal or apoptotic effect | – | IC50 [3]: 99.2 µM; anti-leishmanial (leishmanicidal) effect ([2]; artemisinin at 35 μM): does not have an anti-leishmanial effect; also recorded: does not have leishmanicidal or apoptotic effect |
| 0.545 | N=C(N)c1ccc(OCCCCCOc2ccc(C(=N)N)cc2)cc1 [pentamidine] | 63 | – | – | – |
